Source: US20230257373A1, “QUORUM SENSING INHIBITORS AND METHODS OF USE” (priority 2020, published 2023)
Like-named read-outs stand apart in the source and are kept apart here.

Experiments:
V. campbellii LuxR [1] = biological target: T1, V. campbellii LuxR (Vibrio harveyi, UniProt P21308); experiment: E. coli dual-color bioassay (pKM699 LuxR, pJV064 reporter); format: cell-based; settings: for IC50: read-out: IC50 in the bioassay (approximate); for Inhibition of LuxR in the E. coli bioassay (in words): GFP and mCherry reporters
T1 construct: expressed in transfected cells; host or cells: E. coli DH10B with pKM699 and reporter pJV064
T1 sequence (P21308 whole entry): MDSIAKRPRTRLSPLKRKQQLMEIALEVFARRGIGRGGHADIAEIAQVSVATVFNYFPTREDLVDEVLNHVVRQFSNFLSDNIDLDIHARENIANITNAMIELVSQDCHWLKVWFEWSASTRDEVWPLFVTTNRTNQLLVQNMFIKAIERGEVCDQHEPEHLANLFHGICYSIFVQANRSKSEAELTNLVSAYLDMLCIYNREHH
Excerpt: Previously, we developed a bioassay that consists of a dual-color fluorescent reporter plasmid that reports both LuxR activities: the luxCDABE promoter is activated by LuxR and drives expression of gfp, and the VIBHAR_05222 promoter is repressed by LuxR and drives expression of mCherry (van Kessel et al., 2013b) (FIG. 2A). We used this reporter plasmid in an E. coli strain that also contains a plasmid expressing LuxR from its native promoter.
A bioassay was developed to monitor LuxR function that consists of a dual-color reporter plasmid (pJV064) that reports both activities: the luxCDABE promoter is activated by LuxR and drives expression of gfp, and the 05222 promoter is repressed by LuxR and drives expression of mCherry (van Kessel, Ulrich et al. 2013). This reporter plasmid was used in an E. coli strain that also contains a plasmid (pKM699) expressing LuxR from its native promoter. E. coli cultures containing these two plasmids were grown at 30° C. in LB medium with chloramphenicol (10 μg/ml) and tetracycline (10 μg/ml) to select for the two plasmids. Compounds were added to the cultures at a range of concentrations, and the cultures were incubated for 16 hours shaking at 30° C.
The dual-promoter fluorescence reporter assays were performed using E. coli strain DH10B containing two plasmids: 1) plasmid pJV064 containing the PluxC fused to GFP and P05222fused to mCherry to assess LuxR transcriptional regulation, and 2) plasmid pKM699 expressing V. campbellii luxR under control of its native promoter or empty vector pLAFR2.

[2] = tested on: PluxC-gfp reporter in V. vulnificus; experiment: PluxC-gfp reporter in V. vulnificus strains; settings: Vibrio vulnificus
[3] = tested on: PluxC-gfp reporter in V. campbellii; experiment: PluxC-gfp reporter in V. campbellii strains; settings: Vibrio campbellii
[4] = tested on: PluxC-gfp reporter in V. parahaemolyticus; experiment: PluxC-gfp reporter in V. parahaemolyticus strains; settings: Vibrio parahaemolyticus
[5] = tested on: PluxC-gfp reporter in V. coralliilyticus; experiment: PluxC-gfp reporter in V. coralliilyticus strains
Vibrio strains = experiment: luxCDABE reporter across five Vibrio species; settings: each Vibrio strain except V. cholerae
V. campbellii LuxR [6] = biological target: T1, V. campbellii LuxR; experiment: qRT-PCR and western blots in wild-type V. campbellii; format: cell-based
Excerpt: The Qstatin-treated regulon overlapped with the SmcR regulon by more than 50%, with similar gene expression fold-changes. […] This is important to note because LuxR and HapR proteins are known to autorepress their own expression. To test the effects of adding inhibitors to V. campbellii LuxR, we added 10A, 10B, and 10C to wild-type V. campbellii and used qRT-PCR and western blots to examine the effects on luxR transcript and protein levels. We also examined the transcript levels for luxC and 05222 genes that are directly activated or repressed by LuxR, respectively.
All PCR reactions were performed using Phusion HF polymerase (NEB). T4 polynucleotide kinase (T4 PNK) used in EMSAs and all other enzymes were purchased from NEB and used according to manufacturer's instructions. Site-directed mutagenesis for construction of plasmids expressing mutant proteins was carried out using the Agilent QuikChange II XL Site-Directed Mutagenesis Kit. All oligonucleotides were purchased from Integrated DNA Technologies (IDT).ALL plasmid constructs were confirmed by DNA sequencing (Eurofins). Cloning details for plasmids are available upon request. Western blot analysis was performed as previously described (van Kessel et al., 2013b), except that new anti-LuxR antibodies were generated through Cocalico against purified LuxR protein. In addition, the western blots were probed with anti-RpoB (Neoclone).
Then cells were induced with 50 μM IPTG and grown under the same conditions until cells reached an OD600 of approximately 1, at which 5 mL of cells were collected by centrifugation and frozen in liquid N2. RNA was extracted using a Trizol/chloroform extraction protocol previously described (Rutherford et al., 2011). Quantitative real-time PCR (qRT-PCR) was performed as previously described (Chaparian et al., 2016). Samples were normalized to the internal standard hfq gene. The ΔΔCT values were used to analyze data from three independent biological replicates. Symbols on graphs represent the mean values and error bars represent the standard deviations. All statistical analysis was performed with functions from GraphPad Prism version 8.

[7] = ATCC27562, read-out: Inhibition (IC50) of the PluxC-gfp reporter, Vvul ATCC 27562
[8] = read-out: Inhibition (IC50) of the PluxC-gfp reporter, Vvul CMPC6
[9] = read-out: Inhibition (IC50) of the PluxC-gfp reporter, Vvul YJ016
[10] = ATCC25920, read-out: Inhibition (IC50) of the PluxC-gfp reporter, Vcamp ATCC 25920
[11] = read-out: Inhibition (IC50) of the PluxC-gfp reporter, Vcamp BB120
[12] = read-out: Inhibition (IC50) of the PluxC-gfp reporter, Vcamp HY01
[13] = read-out: Inhibition (IC50) of the PluxC-gfp reporter, Vpara 12-297/B
[14] = read-out: Inhibition (IC50) of the PluxC-gfp reporter, Vpara D4
[15] = read-out: Inhibition (IC50) of the PluxC-gfp reporter, Vpara RIMD 2210633
[16] = read-out: Inhibition (IC50) of the PluxC-gfp reporter, Vcoral OCN 008
[17] = read-out: Inhibition (IC50) of the PluxC-gfp reporter, Vcoral OCN 014

Compound	IC50 (V. campbellii LuxR [1]) [nM]	IC50 [2, 7] [nM]	IC50 [2, 8] [nM]	IC50 [2, 9] [nM]	IC50 [3, 10] [nM]	IC50 [3, 11] [nM]	IC50 [3, 12] [nM]	IC50 [4, 13] [nM]	IC50 [4, 14] [nM]	IC50 [4, 15] [nM]	IC50 [5, 16] [nM]	IC50 [5, 17] [nM]	Inhibition of LuxR in the E. coli bioassay (in words) (V. campbellii LuxR [1])	IC50 values lower than Qstatin (Vibrio strains) [fold]	luxC transcripts (V. campbellii LuxR [6]; qRT-PCR, to levels in a ΔluxR strain)	05222 transcripts (V. campbellii LuxR [6]; qRT-PCR, wild-type cultures)	LuxR protein level (V. campbellii LuxR [6]; western blot, wild-type V. campbellii)
Cc1ccn(S(=O)(=O)c2ccc(Br)s2)n1 [Compound 8A, 1-((5-bromothiophen-2-yl)sulfonyl)-3-methyl-1H-pyrazole]	10000 to 20000	400	2100	500	700	3800	1200	2100	2400	2000	4200	9600	–	–	–	–	–
Cc1ccn(S(=O)(=O)c2cccs2)n1 [Compound 8B, 3-methyl-1-(thiophen-2-ylsulfonyl)-1H-pyrazole]	–	1900	11500	3000	3900	32400	8700	6700	8400	7300	26100	26800	does not show inhibition	–	–	–	–
Cc1ccn(S(=O)(=O)c2ccc(Cl)s2)n1 [Compound 8C, 1-((5-chlorothiophen-2-yl)sulfonyl)-3-methyl-1H-pyrazole]	10000 to 20000	700	4600	1000	1500	6700	2700	3300	4500	3800	2700	8400	–	–	–	–	–
O=S(=O)(c1ccc(Br)s1)n1ccc(-c2ccccc2)n1 [Compound 10A, 1-((5-bromothiophen-2-yl)sulfonyl)-3-phenyl-1H-pyrazole]	1000 to 2000	1.44	33.9	5.84	50	580	400	1030	870	630	2090	2010	most potent	~10	significantly decreased	significantly increased	visible increase
